Laboratory results published in paper PMC2757673, “Protein Misfolding as an Underlying Molecular Defect in Mucopolysaccharidosis III Type C” (PLoS ONE, 2009).
Counter-ions that a name gives are not always drawn.

What was measured:
[1] = target: T1, HGSNAT (heparan sulfate acetyl-CoA: α-glucosaminide N-acetyltransferase), HGSNAT-TAP (Homo sapiens, UniProt Q68CP4); test: fluorogenic N-acetyltransferase assay, Lineweaver-Burk plot, partially purified (streptavidin resin) enzyme; assay type: biochemical; conditions: acetyl-CoA co-substrate, 4MU-βGlcN 0.05-2.0 mM, McIlvain buffer pH 5.7, 37°C, 18 h
T1 construct: transient expression in COS-7 cells; homogenate or streptavidin-resin partially purified; ~77 kDa
T1 sequence (Q68CP4 1-663): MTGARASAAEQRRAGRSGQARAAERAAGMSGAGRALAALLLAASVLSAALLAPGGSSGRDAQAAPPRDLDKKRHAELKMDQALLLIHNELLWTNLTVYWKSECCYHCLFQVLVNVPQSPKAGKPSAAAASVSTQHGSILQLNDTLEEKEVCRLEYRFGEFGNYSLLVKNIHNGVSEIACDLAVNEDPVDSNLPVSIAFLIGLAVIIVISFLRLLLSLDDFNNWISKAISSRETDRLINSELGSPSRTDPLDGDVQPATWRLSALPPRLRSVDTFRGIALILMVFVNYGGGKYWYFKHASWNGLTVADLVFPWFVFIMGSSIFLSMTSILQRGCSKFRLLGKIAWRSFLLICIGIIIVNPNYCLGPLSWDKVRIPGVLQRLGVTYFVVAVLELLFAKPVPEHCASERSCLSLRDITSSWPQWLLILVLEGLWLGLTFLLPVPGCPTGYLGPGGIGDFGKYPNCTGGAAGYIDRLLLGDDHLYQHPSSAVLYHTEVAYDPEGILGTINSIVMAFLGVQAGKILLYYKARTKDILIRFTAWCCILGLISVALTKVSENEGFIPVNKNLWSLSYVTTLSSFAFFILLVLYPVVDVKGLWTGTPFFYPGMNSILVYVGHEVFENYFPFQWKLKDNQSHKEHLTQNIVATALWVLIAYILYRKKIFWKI

[2] = target: T1, HGSNAT (heparan sulfate acetyl-CoA: α-glucosaminide N-acetyltransferase), HGSNAT-TAP; test: fluorogenic N-acetyltransferase assay, Dixon plot, homogenate of transfected COS-7 cells; assay type: biochemical; conditions: competitive; 4MU-βGlcN 0.0375-1.5 mM, 2 mM acetyl-CoA, McIlvain buffer pH 5.7, 37°C, 3 h

| SMILES | KM [1] | Ki [2] [µM] |
| --- | --- | --- |
| Cc1cc(=O)oc2cc(O[C@@H]3O[C@H](CO)[C@@H](O)[C@H](O)[C@H]3N)ccc12 [4MU-βGlcN, 4-methylumbelliferyl β-D-glucosaminide] | Lineweaver-Burk plot of substrate dependance for partially purified HGSNAT wild-type and P237Q and V481L mutants |  |
| N[C@H]1C(O)O[C@H](CO)[C@@H](O)[C@@H]1O (stereo partly drawn) [D-(+)-glucosamine hydrochloride] |  | 280 |
